These results are taken from patent US11542316B2, “S-Arrestin peptides and therapeutic uses thereof” (APITOPE INTERNATIONAL NV, priority 2017, dated 2023).

Data set [1] has as its system LN and spleen cells. In words: Immunogenicity of HIP-115 in DR3 mice (IFN-γ ELISA on LN and spleen cultures). The format is in vivo. The settings on record: mice immunized with 50 μg HIP-115/CFA; LN and spleens cultured with 10 and 25 μg/ml HIP-115, 72 h. The procedure:
FIG. 1: Immunogenicity of HIP-115 in DR3 mice. Mice were immunized with 50 μg HIP-115/CFA or PBS/CFA in the tail base. After 10 days, LN and spleens were harvested and cultured with 10 μg/ml and 25 μg/ml of HIP-115. Supernatants were collected after 72 h. Cell activation was measured by IFN-γ ELISA. (A) Immunogenicity in LN. (B) Immunogenicity in spleens. CFA, Complete Freund's Adjuvant; LN, lymph nodes.
Animal experiments were done to verify the predictions. Mice that were immunized with SAg (or fragments of it) were tested for their capacity to elicit an immune response when probed with the whole protein or parts of it. […] This response can be observed in secondary lymphoid organs, namely spleen (FIG. 1A) and lymph nodes (LN; FIG. 1B).
For orientation: ELISA stands for enzyme-linked immunosorbent assay.

In data set [2] the test system is SAg-specific hybridoma cells / T cell line with VAVY APC. In words: Antigen Processing Independent Presentation System (APIPS) assay, fresh or fixed VAVY APC. Type of data set: cell-based, DR3 mice. Particulars: DR3 hybridoma clone (IL-2, 48 h) or T cell line (IFN-γ, 24 h). The procedure: (§1) FIG. 2: identification of apitopes within HIP-115. (A) DR3 mice were immunized with SAg and hybridomas were generated. 5×10^4 SAg-specific hybridoma cells were cultured with 5×10^4 fresh or fixed commercial APC (VAVY) cells. T cell proliferation was measured by IL-2 ELISA on supernatants collected after 48 h. The graph represents the mean of duplicate measurements±SEM. (B) DR3 mice were immunized with HIP-115 and a T cell line was established. Ten days after immunization the LN and spleens were harvested and cultured with different concentrations of peptide (0.1-1-2.5 and 5 μg/ml); 2×10^6 cells/ml APC+1×10^6 cells/ml CD4 T cells per well. At day 7 the cells were re-stimulated with the same concentrations of peptide. On day 14 an APIPS test was done using commercial APC (VAVY). After 24 h, antigen-induced T cell activation was measured by IFN-γ ELISA and shown as IFN-γ concentration (pg/ml). The graph represents the mean of duplicate measurements±SEM. LN, lymph nodes; APC, Antigen presenting cell; APIPS, Antigen Processing Independent Presentation System.
as §1, with “3:” for “2:”, “HIP-241125.” for “HIP-115.”, “HIP-241125+HIP-24DG” for “HIP-115”
(§2) FIG. 5: Identification of apitopes within HIP-17GN. DR3 mice were immunized with HIP-17GN and a T cell line was established. Ten days after immunization the LN and spleens were harvested and cultured with different concentrations of peptide (0.1-1-2.5 and 5 μg/ml); 2×10^6 cells/ml APC+1×10^6 cells/ml CD4 T cells per well. At day 7 the cells were re-stimulated with the same concentrations of peptide. On day 14 an APIPS test was done using commercial APC (VAVY). After 24 h, antigen-induced T cell activation was measured by IFN-γ ELISA and shown as OD values. The graph represents the mean of triplicate measurements±SEM. LN, lymph nodes; APC, Antigen presenting cell; APIPS, Antigen Processing Independent Presentation System.
as §2, with “6:” for “5:”, “HIP-12AK.” for “HIP-17GN.”, “HIP-12AK” for “HIP-17GN”, “IFN-γ concentration (pg/ml).” for “OD values.”, “duplicate” for “triplicate”
Antigen-specific clones or TCL were tested for their reactivity to the peptides, presented by fixed or not fixed (fresh) cells (VAVY or MGAR) (=APCs). 5×10^4 cells from the individual clones were cultured with 10 μg/ml peptide and 5×10^4 fixed or fresh APCs. […]

Data set [3] has as its target T1, MHC II molecules present on dendritic cells (DC) (Homo sapiens, UniProt P01903+P01911).
T1 construct: from tissue; host or cells: CD11c+ dendritic cells from spleens of DR2tg mice (DRA*0101 and DRB1*1501 cDNAs under a mouse MHCII promoter, no mouse MHC class II)
Kind of data set: In vivo presentation experiment, DR2tg mice. The settings on record: 100 μg peptide s.c., CD11c+ cells harvested after 2 hours, co-culture 48 hours. An excerpt: FIG. 14: In vivo presentation protocol. Mice are immunized with peptide/CFA and a T cell line is established. For this, ten days after immunization the LN and spleens are harvested and cultured with different concentrations of peptide; 2×10^6 cells/ml APC+1×10^6 cells/ml CD4^+ cells per well. At day 7 the cells are re-stimulated with fresh APC and the same concentrations of peptide. After 14 to 21 days, CD4^+ cells are isolated from these cultures by magnetic bead isolation. These CD4^+ cells are co-cultured with CD11c^+ (dendritic) cells isolated by magnetic bead isolation from spleens of mice s.c. injected with peptide 2 hours before. Control mice receive a s.c. injection of PBS. After 48 hours, supernatant is collected and cytokine response (IFN-γ) is measured. […]
FIG. 17: In vivo presentation of HIP-9FL nested peptides in DR2 mice. […] After 48 hours, supernatant was collected and IFN-γ production was measured by ELISA. […]
DR3tg or DR2tg mice were injected with 100 μg of peptide in 100 μl PBS subcutaneously (s.c.) in the flank. […] After 48 hours, supernatant of these co-cultures was collected and CD4^+ T cell activation was analysed by IFN-γ ELISA (R&D Systems, Abingdon, UK). In a parallel experiment, CD4^+ T cell responses towards peptide added in vitro were assessed to make sure the T cells recognize the peptides presented by the CD11c^+ cells.

The nature of data set [4]: Solubility of peptides. Type of data set: physicochemical. The procedure:
The solubility of potential apitopes from S—Ag are determined by visual observations and turbidity measurement by UV spectrophotometry at 280 nm. The solubility of the peptides can be modified by adding amino acids ‘GKK’ or ‘KKK’ (or similar) on both the C- and N-terminus of the sequence. Modifications that may be suitable are described in WO2014/072958 (which is hereby incorporated by reference).
For some of these peptides, the parental peptides were insoluble, and solubility is a critical parameter for them to work as a tolerogenic peptide. Several end-terminal modifications can be used and as example used here they were improved by addition of 3 lysines before and after the original peptide sequence (labelled as ‘-KKK’ versions).

Ends that are not written are not given here.

T1 sequence (P01903 26-254): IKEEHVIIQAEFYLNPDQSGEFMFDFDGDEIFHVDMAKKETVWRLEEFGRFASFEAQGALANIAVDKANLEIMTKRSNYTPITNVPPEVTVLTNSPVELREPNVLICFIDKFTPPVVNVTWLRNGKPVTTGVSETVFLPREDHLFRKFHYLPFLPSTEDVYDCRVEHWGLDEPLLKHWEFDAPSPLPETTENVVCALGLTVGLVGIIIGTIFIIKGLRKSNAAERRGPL
T1 sequence (P01911 30-266): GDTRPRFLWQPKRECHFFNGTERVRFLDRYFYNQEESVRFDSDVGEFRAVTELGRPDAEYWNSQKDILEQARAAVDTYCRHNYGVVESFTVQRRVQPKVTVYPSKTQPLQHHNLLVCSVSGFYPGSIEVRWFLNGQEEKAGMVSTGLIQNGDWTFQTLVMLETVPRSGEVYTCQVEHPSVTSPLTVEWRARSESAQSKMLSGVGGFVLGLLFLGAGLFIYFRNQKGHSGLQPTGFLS

With “MAASGKTSKSEPNHVIFKKISRDKSVTIYLGNRDYIDHVSQV-NH2 [HIP-115]”, the “immune response against HIP-115 (IFN-γ ELISA)” value in data set [1] is “develop an immune response against it”. Further, in data set [2], the “behaves as apitope (response to peptide presented by fresh or fixed APC)” value is “behave as apitopes”.
As to AFVEQVANVVL-NH2 [HIP-9K1, AFVEQVANVVL], the “picked up and presented by MHC II on dendritic cells to peptide-specific T cells (IFN-γ production)” value in data set [3] is “not able to cause this activation”. Further, the solubility result in data set [4] was “insoluble”.
